Experimental findings from patent US9745297B2, “Compounds as modulators of RORC” (Boehringer Ingelheim International GmbH, priority 2013, dated 2017) are described below.

This assay has as its target T1, RORγt (Homo sapiens, UniProt P51449).
T1 construct: expressed in transfected cells
T1 sequence (P51449 269-508 limits assumed): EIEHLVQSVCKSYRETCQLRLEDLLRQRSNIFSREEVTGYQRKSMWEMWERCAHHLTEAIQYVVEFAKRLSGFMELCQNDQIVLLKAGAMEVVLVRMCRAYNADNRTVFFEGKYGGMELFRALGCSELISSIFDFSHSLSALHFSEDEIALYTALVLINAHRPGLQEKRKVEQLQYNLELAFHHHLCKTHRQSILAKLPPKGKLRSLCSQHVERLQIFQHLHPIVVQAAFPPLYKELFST
The assay can be described thus: RGA Assay: nuclear receptor transactivation assay, RORγt transactivation of a luciferase reporter. It counts as cell-based. The settings on record: transiently transfected HEK 293 cells (pGL4.3 luc2P/GAL4UAS, pBIND Gal4DBD hRORC LBD), 20-24 hours incubation, luciferase readout. As to the method: A nuclear receptor transactivation assay was performed to quantitate the ability of test compounds to inhibit RORγt transactivation of a luciferase reporter. A similar assay is described in: Khan et al., Bioorganic & Medicinal Chemistry Letters 23 (2013), 532-536. The system uses transiently transfected HEK 293 cells cotransfected with two plasmids (pGL4.3, luc2P/GAL4UAS/Hygro, and pBIND, Ga14DBD hRORC LBD1-3). The positive control is co-transiently transfected with both plasmids, and the negative control contains the pGL4.3 promoter sequence. Assays were assembled in 384 well plates where transiently transfected cells and test compound at varying concentrations were incubated for 20-24 hours. The next day, assays plates are taken out and equillibrated at RT for 20-30 minutes. Bright-Glo™ Luciferase Assay System is used to detect Luciferase production. After addition of Bright GLO detection reagent, the plates were incubated at RT for 20 minutes. The plates were read on an Envision plate reader to measure luminescence signal. The RLU signal is converted to POC relative to control and blank wells.
Compound Dilution Buffer:
Bright Glo Luciferase Assay System: Promega #E2620
Thaw lysis buffer provided in kit, add 100 mL lysis buffer to substrate powder.
On the technique in general: A reporter such as luciferase makes a cellular process visible.
In turn, `CNS(=O)(=O)c1ccc(CNC(=O)N2CC3(CCCC3)c3nc(-c4ccc(F)cc4C)ccc32)cc1` [Example 1] returned an IC50 of 1.6 µM.

`Cc1cc(O)ccc1-c1ccc2c(n1)C(C)(C)CN2C(=O)NCc1ccc(C#N)cc1` [Example 2] yielded an IC50 above 30 µM.

For `COc1cc(C)c(-c2ccc3c(n2)C(C)(C)CN3C(=O)NCc2ccc(C#N)cc2)cn1` [Example 3], the half-inhibitory concentration (IC50) is above 30 µM.

Regarding `COc1ccc(-c2ccc3c(n2)C(C)(C)CN3C(=O)NCc2ccc(C#N)cc2)c(C(F)(F)F)c1` [Example 4], the IC50 came out at 12 µM.

With `Cc1nc(N2CCOCC2)ccc1-c1ccc2c(n1)C1(CCCC1)CN2C(=O)NCc1ccc(S(C)(=O)=O)cc1` [Example 5], the IC50 was above 30 µM.

In turn, `COC1CCCN(c2ccc(-c3ccc4c(n3)C3(CCCC3)CN4C(=O)NCc3ccc(S(C)(=O)=O)cc3)c(C)n2)C1` (stereo not drawn) [Example 6] gave an IC50 of 24 µM.

`COC1CCN(c2ccc(-c3ccc4c(n3)C3(CCCC3)CN4C(=O)NCc3ccc(S(C)(=O)=O)cc3)c(C)n2)CC1` [Example 7] gave an IC50 above 30 µM.

`CNC(=O)c1ccc(-c2ccc3c(n2)C2(CCCC2)CN3C(=O)NCc2ccc(S(C)(=O)=O)cc2)c(C)c1` [Example 8]: the IC50 is above 30 µM.

As to `CCNC(=O)c1ccc(-c2ccc3c(n2)C2(CCCC2)CN3C(=O)NCc2ccc(S(C)(=O)=O)cc2)c(C)c1` [Example 9], the IC50 was found to be 4.3 µM.

`CCS(=O)(=O)c1ccc(CNC(=O)N2CC3(CCCC3)c3nc(-c4ccc(C#N)cc4C)ccc32)cc1` [Example 10] displayed an IC50 of 11 µM.

On to `CCS(=O)(=O)c1ccc(CNC(=O)N2CC3(CCCC3)c3nc(-c4ccc(O)cc4C(F)(F)F)ccc32)cc1` [Example 11], for which the IC50 was found to be 0.11 µM.

Take `CCS(=O)(=O)c1ccc(CNC(=O)N2CC3(CCCC3)c3nc(-c4ccc(OC)cc4C(F)(F)F)ccc32)cc1` [Example 12]: half-maximal inhibition (IC50) required 0.48 µM.

With `CCS(=O)(=O)c1ccc(CNC(=O)N2CC3(CCCC3)c3nc(-c4cnc(OC)cc4C)ccc32)cc1` [Example 13], the midpoint of inhibition, the IC50, lay at 5.2 µM. This IC50 is about 11-fold higher than that of the compound before.

`CCS(=O)(=O)c1ccc(CNC(=O)N2CC3(CCCC3)c3nc(-c4ccc(F)cc4C)ccc32)cc1` [Example 14]: the IC50 is 3.4 µM.

In turn, `CCS(=O)(=O)c1ccc(CNC(=O)N2CC3(CCCC3)c3nc(-c4ccc(O)cc4C)ccc32)cc1` [Example 15] had an IC50 of 0.48 µM. Against the preceding compound, the IC50 is about 7.1-fold lower.

For the compound `CC1(C)CN(C(=O)NCc2ccc(S(C)(=O)=O)cc2)c2ccc(Br)nc21` [Example 16], the IC50 is above 30 µM.

`CNS(=O)(=O)c1ccc(CNC(=O)N2CC(C)(C)c3nc(Br)ccc32)cc1` [Example 17] came in with an IC50 above 30 µM.

`COc1ccc(-c2ccc3c(n2)C(C)(C)CN3C(=O)NCc2ccc(S(C)(=O)=O)cc2)c(C(F)(F)F)c1` [Example 18]: the IC50 worked out at 3.4 µM. That is a single-digit micromolar value.

The compound `COc1cc(C)c(-c2ccc3c(n2)C(C)(C)CN3C(=O)NCc2ccc(S(C)(=O)=O)cc2)cn1` [Example 19] showed an IC50 of 10 µM. This IC50 lies about 2.9-fold higher than the previous one.

Regarding `CC(C)c1ncncc1-c1ccc2c(n1)C(C)(C)CN2C(=O)NCc1ccc(S(C)(=O)=O)cc1` [Example 20], the IC50 turned out to be 19 µM.

Compound `Cc1cc(O)ccc1-c1ccc2c(n1)C(C)(C)CN2C(=O)NCc1ccc(S(C)(=O)=O)cc1` [Example 21] returned an IC50 of 12 µM.

Consider `Cc1cc(F)ccc1-c1ccc2c(n1)C(C)(C)CN2C(=O)NCc1ccc(S(C)(=O)=O)cc1` [Example 22], for which the IC50 is above 30 µM.

`CNS(=O)(=O)c1ccc(CNC(=O)N2CC(C)(C)c3nc(-c4ccc(OC)cc4C(F)(F)F)ccc32)cc1` [Example 23] gave an IC50 of 1.8 µM.

The compound `CCS(=O)(=O)c1ccc(CNC(=O)N2CC3(CCCC3)c3nc(-c4c(C)ncnc4C)ccc32)cc1` [Example 24] showed an IC50 of 5.9 µM.

Consider `CCS(=O)(=O)c1ccc(CNC(=O)N2CC3(CCCC3)c3nc(-c4cncnc4C(C)C)ccc32)cc1` [Example 25], for which half-maximal inhibition (IC50) was put at 1.2 µM.

`CCS(=O)(=O)c1ccc(CNC(=O)N2CC3(CCCC3)c3nc(-c4c(OC)ncnc4C4CC4)ccc32)cc1` [Example 26] had an IC50 of 0.35 µM. Against the preceding compound, the IC50 is about 3.4-fold lower.

In the case of `CCS(=O)(=O)c1ccc(CNC(=O)N2CC3(CCCC3)c3nc(-c4sc(OC)nc4C)ccc32)cc1` [Example 27], it took 8 µM to reach half-maximal inhibition (IC50).

Regarding `CCS(=O)(=O)c1ccc(CNC(=O)N2CC3(CCCC3)c3nc(-c4c(C)nn(CCN(C)C)c4C)ccc32)cc1` [Example 28], the IC50 was above 30 µM.

In turn, `CCS(=O)(=O)c1ccc(CNC(=O)N2CC3(CCCC3)c3nc(-c4c(C(C)C)n[nH]c4C)ccc32)cc1` [Example 29] came in with an IC50 of 1.7 µM.

With `CCS(=O)(=O)c1ccc(CNC(=O)N2CC3(CCCC3)c3nc(-c4c(C)n[nH]c4C)ccc32)cc1` [Example 31], the IC50 is above 30 µM.

For `CCS(=O)(=O)c1ccc(CNC(=O)N2CC3(CCCC3)c3nc(-c4sc(N)nc4C(F)(F)F)ccc32)cc1` [Example 32], the IC50 is 17 µM.

As for `CCS(=O)(=O)c1ccc(CNC(=O)N2CC3(CCCC3)c3nc(-c4cnc(N(C)C)nc4C(F)(F)F)ccc32)cc1` [Example 33], the IC50 is 1.2 µM.

`COCCOc1cc(C#N)ccc1CNC(=O)N1CC2(CCCC2)c2nc(-c3cncnc3C(C)C)ccc21` [Example 34] showed an IC50 of 11 µM.

The compound `CCS(=O)(=O)c1ccc(CNC(=O)N2CC3(CCCC3)c3nc(-c4cncnc4C(F)(F)F)ccc32)cc1` [Example 35] registered an IC50 of 2.1 µM. This IC50 is about 5.2-fold lower than that of the compound before.

Regarding `CCS(=O)(=O)c1ccc(CNC(=O)N2CC3(CCCC3)c3nc(-c4c(C)nn(C)c4C)ccc32)cc1` [Example 36], the IC50 was found to be 16 µM.

As to `CCS(=O)(=O)c1ccc(CNC(=O)N2CC3(CCCC3)c3nc(-c4ncc(C)nc4C)ccc32)cc1` [Example 37], the IC50 was above 30 µM.

On to `CCS(=O)(=O)c1ccc(CNC(=O)N2CC3(CCCC3)c3nc(-c4ncc(C(F)(F)F)cn4)ccc32)cc1` [Example 38], for which the IC50 was above 30 µM.

`CCS(=O)(=O)c1ccc(CNC(=O)N2CC3(CCCC3)c3nc(-c4nnccc4C(F)(F)F)ccc32)cc1` [Example 39] yielded an IC50 above 30 µM.

As to `CCS(=O)(=O)c1ccc(CNC(=O)N2CC3(CCCC3)c3nc(-c4ncc(N(C)C)nc4C4CC4)ccc32)cc1` [Example 40], the midpoint of inhibition, the IC50, lay at 1.6 µM.

The compound `CCS(=O)(=O)c1ccc(CNC(=O)N2CC3(CCCC3)c3nc(-c4nc(C)cnc4C)ccc32)cc1` [Example 41] gave an IC50 above 30 µM.

The compound `CNS(=O)(=O)c1ccc(CNC(=O)N2CC(C)(C)c3nc(-c4ccc(F)cc4C)ccc32)cc1` [Example 42] yielded an IC50 of 10 µM.

As for `CNS(=O)(=O)c1ccc(CNC(=O)N2CC(C)(C)c3nc(-c4ccc(O)cc4C)ccc32)cc1` [Example 43], it took 8.5 µM to reach half-maximal inhibition (IC50).

The compound `CNS(=O)(=O)c1ccc(CNC(=O)N2CC(C)(C)c3nc(-c4cnc(OC)cc4C)ccc32)cc1` [Example 44] returned an IC50 of 18 µM.

`CNS(=O)(=O)c1ccc(CNC(=O)N2CC(C)(C)c3nc(-c4cncnc4C(C)C)ccc32)cc1` [Example 45] displayed a 50% inhibitory concentration (IC50) of 9.1 µM.

Consider `COc1ccc(-c2ccc3c(n2)C2(CCCC2)CN3C(=O)NCc2ccc(C#N)cc2)c(C(F)(F)F)c1` [Example 46], for which half-maximal inhibition (IC50) required 4.1 µM.

Take `COc1cc(C)c(-c2ccc3c(n2)C2(CCCC2)CN3C(=O)NCc2ccc(C#N)cc2)cn1` [Example 47]: the IC50 was 15 µM. This IC50 is about 3.7-fold higher than that of the compound before.

`CC1(C)CN(C(=O)NCc2ccc(S(C)(=O)=O)cc2)c2ccc(Oc3ccc(F)c(OC(F)(F)F)c3)nc21` [Example 48] displayed an IC50 of 6.6 µM.

Compound `CNS(=O)(=O)c1ccc(CNC(=O)N2CC(C)(C)c3nc(Oc4ccc(F)c(OC(F)(F)F)c4)ccc32)cc1` [Example 49] displayed an IC50 of 4.1 µM.

In the case of `Cc1cc(F)ccc1-c1ccc2c(n1)C1(CCCC1)CN2C(=O)NCc1ccc(S(C)(=O)=O)cc1` [Example 50], the IC50 was 8.6 µM.

Take `CNS(=O)(=O)c1ccc(CNC(=O)N2CC3(CCCC3)c3nc(-c4ccc(OC)cc4C(F)(F)F)ccc32)cc1` [Example 51]: 0.71 µM corresponded to half-maximal inhibition (IC50).

`COc1ccc(-c2ccc3c(n2)C2(CCCC2)CN3C(=O)NCc2ccc(S(C)(=O)=O)cc2)c(C(F)(F)F)c1` [Example 52] had an IC50 of 0.93 µM.

For the compound `Cc1cc(O)ccc1-c1ccc2c(n1)C1(CCCC1)CN2C(=O)NCc1ccc(S(C)(=O)=O)cc1` [Example 54], the IC50 was determined as 1.4 µM.

`CNS(=O)(=O)c1ccc(CNC(=O)N2CC3(CCCC3)c3nc(-c4cncnc4C(C)C)ccc32)cc1` [Example 55] had an IC50 of 1.1 µM.

`CC(C)c1ncncc1-c1ccc2c(n1)C1(CCCC1)CN2C(=O)NCc1ccc(S(C)(=O)=O)cc1` [Example 56] displayed an IC50 of 1.6 µM.

In turn, `CNS(=O)(=O)c1ccc(CNC(=O)N2CC3(CCCC3)c3nc(-c4cnc(OC)cc4C)ccc32)cc1` [Example 57] had an IC50 of 5.2 µM.

Take `COc1cc(C)c(-c2ccc3c(n2)C2(CCCC2)CN3C(=O)NCc2ccc(S(C)(=O)=O)cc2)cn1` [Example 58]: the IC50 turned out to be 8 µM.

With `CS(=O)(=O)c1ccc(CNC(=O)N2CC3(CCCC3)c3nc(Oc4ccc(C(F)(F)F)nc4)ccc32)cc1` [Example 59], the IC50 was above 30 µM.

What is called IC50 is the point on the concentration scale where inhibition reaches its midpoint. A high value points to lower potency.
